{"source": "patent US8981100B2", "about": "“Use of novel coumarins as glutathione and thiol labels” (Life Technologies Corporation, priority 2007, dated 2015)", "key": {"[1]": {"system": "U-2 OS cells", "assay": "effect of BSO treatment on Example 2 staining in U-2 OS cells", "format": "cell-based, human", "settings": "BSO 4 mM overnight, Example 2 40 uM, varied staining time, 3.7% formaldehyde fixation, nuclear region", "method": "(§1) Cells are plated into 96-well microplates and allowed to recover for several hours or overnight. For testing effects of drugs on intracellular thiol/glutathione content, normal growth medium is removed and replaced with normal growth medium containing the test drug. The solution is incubated for several minutes to days. Growth medium is then removed and mixture is rinsed twice with DPBS with glucose/calcium/magnesium (Invitrogen #14287). The compound of Examples 1, 2 or 4 is added in DPBS (Invitrogen #14287), with a concentration up to 100 uM (typically 20 uM). The solution is incubated in a 37 degree C. incubator for 5-30 minutes (typically 30 minutes). Cells can be imaged after dye labeling.\n(§2) Aldehyde fixation: The dye solution is removed and formaldehyde 3.7% (Sigma F1635, or higher quality) in DPBS (Invitrogen #14190) is added and incubated at room temperature in a fume hood for 30 minutes. The formaldehyde fixative is then removed and cells are rinsed with DPBS (Invitrogen #14190) twice. Cells are kept in PBS.\n(§3) To quantitate the images of cells stained with the Example compounds, one of the image analysis “BioApplcations” of Arrayscan VTI is used. […] Pixel intensity of the dye in cells are measured in regions (Nucleus, and/or “CytoRing”) defined by the cell identification method based on the nuclear counter stain. […]"}, "[2]": {"system": "U-2 OS cells", "assay": "effect of quinone toxicants on Example 2 staining in U-2 OS cells", "format": "cell-based, human", "settings": "toxicant 2 hours, high concentration 33.3 uM in steps of 1/3, Example 2 30 min, formaldehyde fixation, nuclear region", "method": "as §1, §2\nTo quantitate the images of cells stained with the Example compounds, one of the image analysis “BioApplcations” of Arrayscan VTI is used. The basic principle of the software is described as follows: Individual cells in an image are identified using the intensity profile of nuclear stain (e.g. TO-PRO-3). The regions derived from the identified nuclear region in individual cells is obtained (“CytoRing”). Pixel intensity of the dye in cells are measured in regions (Nucleus, and/or “CytoRing”) defined by the cell identification method based on the nuclear counter stain. Cell-level data (intensity and other attributes of each cell in all acquired images) are then reported by the computer for further processing and analysis."}, "[3]": {"system": "Clone 9 cells (Rat liver cells)", "assay": "effect of DEM treatment on Clone 9 cells, Example 2 multiplexed with YOYO-1", "format": "cell-based", "settings": "DEM 2 hours, at higher concentration of DEM", "method": "Cells are plated into 96-well microplates and allowed to recover for several hours or overnight. For testing effects of drugs on intracellular thiol/glutathione content, normal growth medium is removed and replaced with normal growth medium containing the test drug. The solution is incubated for several minutes to days. Growth medium is then removed and mixture is rinsed twice with DPBS with glucose/calcium/magnesium (Invitrogen #14287). The compound of Examples 1, 2 or 4 is added in DPBS (Invitrogen #14287), with a concentration up to 100 uM (typically 20 uM). The solution is incubated in a 37 degree C. incubator for 5-30 minutes (typically 30 minutes). Cells can be imaged after dye labeling. Aldehyde fixation: The dye solution is removed and formaldehyde 3.7% (Sigma F1635, or higher quality) in DPBS (Invitrogen #14190) is added and incubated at room temperature in a fume hood for 30 minutes. The formaldehyde fixative is then removed and cells are rinsed with DPBS (Invitrogen #14190) twice. Cells are kept in PBS. To quantitate the images of cells stained with the Example compounds, one of the image analysis “BioApplcations” of Arrayscan VTI is used. […] Pixel intensity of the dye in cells are measured in regions (Nucleus, and/or “CytoRing”) defined by the cell identification method based on the nuclear counter stain. […]"}, "[4]": {"system": "U-2 OS cells", "assay": "cellular staining pattern in U-2 OS cells", "format": "cell-based, human", "method": "as §1, §2\n(§4) The material is imaged with a fluorescence microscope with filter set for Hoechst 33342 (e.g. Arrayscan VTI (Thermo Fisher Scientific/Cellomics) to acquire the images automatically)."}, "[5]": {"system": "U-2 OS cells", "assay": "staining intensity of dyes in fixed U-2 OS cells, measured at the nuclear region", "format": "cell-based, human", "settings": "dye concentration 40 uM, 30 min staining, 3.7% formaldehyde fixation", "method": "as §1\nAldehyde fixation: The dye solution is removed and formaldehyde 3.7% (Sigma F1635, or higher quality) in DPBS (Invitrogen #14190) is added and incubated at room temperature in a fume hood for 30 minutes. […]\nas §4, §3"}, "[6]": {"assay": "absorption and emission maxima of the dyes", "format": "physicochemical"}, "[7]": {"system": "U-2 OS cells", "assay": "SDS-PAGE of labeled U-2 OS cells (+/- BSO) to identify the intracellular target of the dye", "format": "cell-based, human", "settings": "(+/-) BSO 4 mM overnight, Example 2 40 uM for 60 min", "method": "U-2 OS cells (ATCC HTB-96, human osteosarcoma cells) were plated in 10-cm dishes and incubated overnight in a 37 degree C. cell culture incubator. The cells were then treated with DL-Buthionine-(S,R)-sulfoximine (BSO, 4 mM in growth medium) for overnight (Control=no BSO treatment). The cells are rinsed cells 3 times with 10 mL of DPBS (Invitrogen #14287).\nLabeling of cells: Example 2 (40 uM) in DPBS (Invitrogen #14287) was incubated at room temperature for 1 hour. The dye solution was removed and cells rinsed with DPBS (Invitrogen #14287) twice. The cells were scraped off the dish in the presence of DPBS and transferred to a 15 mL conical tube. The cells were pelleted by centrifugation—(5 min. at 5000 rpm, Centrific centrifuge, Fisher Scientific) and resuspended in DPBS, followed by pelleting cells by centrifugation for 5 min at 1000×g. The cells were resuspended in 170 μl DPBS and, to one half, 1 μl Protease Inhibitor (Sigma, P8340) was added, followed by 2 μl 1 M NEM for 30 min and 4 μl 1 M DTT for 30 min.\nProcessed samples were resolved with SDS-PAGE (NuPAGE 12% Bis-Tris, Invitrogen, NP0342BOX) run in MES buffer (Invitrogen, NP0002). LDS sample buffer (NP0007) and Molecular weight standard (SeeBluePlus2 Prestained Standard LC5925) were obtained from Invitrogen. […]"}}, "note": "Values joined by “and” are separate entries in the source; they are usually repeats but may differ in a detail not shown here. Identical values can stand only once. Counter-ions that a name gives are not always drawn."}
{"molecule": "CCCCS(=N)(=O)CCC(N)C(=O)O", "note": "(racemic) [BSO, DL-Buthionine-(S,R)-sulfoximine]", "values": [{"measurement": "effect on Example 2 staining intensity", "setting": "[1]", "value": "reduction of Example 2 staining"}]}
{"molecule": "O=C1C=CC(=O)C=C1", "note": "[BQ, 1,4-benzoquione]", "values": [{"measurement": "effect on Example 2 staining intensity", "setting": "[2]", "value": "decrease of staining at high toxicant concentrations"}]}
{"molecule": "COC(=O)/C=C\\C(=O)OC", "note": "[DEM, Dimethyl maleate]", "values": [{"measurement": "effect on Example 2 intensity", "setting": "[3]; Example 2 40 uM 30 min", "value": "decrease of Example 2 signal (left shift)"}, {"measurement": "effect on YOYO-1 intensity", "setting": "[3]; YOYO-1 1 uM 30 min", "value": "increase of YOYO-1 signal (up shift)"}]}
{"molecule": "O=c1cc(CCl)c2cc3c4c(c2o1)CCCN4CCC3", "note": "[Example 1, 2,3,6,7-tetrahydro-9-chloromethyl-1H,5H-quinolizino(9,1-gh)coumarin]", "values": [{"measurement": "cellular staining pattern", "setting": "[4]", "value": "prominent in nuclear area and diffuse stain in the cytoplasm, with low staining in the cell periphery"}, {"measurement": "staining intensity (brightness) relative to comparator dyes", "setting": "[5]", "value": "brighter than CMAC and mBCl"}, {"measurement": "absorption maximum", "setting": "[6]; in methanol", "value": 405, "unit": "nm"}, {"measurement": "emission maximum", "setting": "[6]; in methanol", "value": 493, "unit": "nm"}]}
{"molecule": "O=c1cc(CBr)c2cc3c4c(c2o1)CCCN4CCC3", "note": "[Example 2, 2,3,6,7-tetrahydro-9-bromomethyl-1H,5H-quinolizino(9,1-gh)coumarin]", "values": [{"measurement": "cellular staining pattern", "setting": "[4]", "value": "prominent in nuclear area and diffuse stain in the cytoplasm, with low staining in the cell periphery"}, {"measurement": "staining intensity (brightness) relative to comparator dyes", "setting": "[5]", "value": "brighter than Example 1"}, {"measurement": "absorption maximum", "setting": "[6]; in methanol", "value": "408 nm and 413 nm"}, {"measurement": "emission maximum", "setting": "[6]; in methanol", "value": "497 nm and 515 nm"}, {"measurement": "major intracellular target", "setting": "[7]", "value": "Glutathione (GSH)"}]}
{"molecule": "N[C@H](CCC(=O)N[C@H](CSCc1cc(=O)oc2c3c4c(cc12)CCCN4CCC3)C(=O)NCC(=O)O)C(=O)O", "note": "[Example 3, glutathione adduct of 2,3,6,7-tetrahydro-9-bromomethyl-1H,5H-quinolizino(9,1-gh)coumarin]", "values": [{"measurement": "absorption maximum", "setting": "[6]; in water", "value": 408, "unit": "nm"}, {"measurement": "emission maximum", "setting": "[6]; in water", "value": 512, "unit": "nm"}]}
{"molecule": "CC1=CC(=O)c2ccccc2C1=O", "note": "[MNQ, 2-methyl-1,4-naphthoquinone]", "values": [{"measurement": "effect on Example 2 staining intensity", "setting": "[2]", "value": "decrease of staining at high toxicant concentrations"}]}
{"molecule": "O=C1C=CC(=O)c2ccccc21", "note": "[NQ, 1,4-naphthoquinone]", "values": [{"measurement": "effect on Example 2 staining intensity", "setting": "[2]", "value": "decrease of staining at high toxicant concentrations"}]}
